Laboratory results reported in ChEMBL document CHEMBL3885881, “DrugMatrix”.

Species: Rattus norvegicus
Assay: DrugMatrix - Regimen: Daily Repeat
Assay type: toxicity, organism-based, Sprague-Dawley
Design: regimen Daily Repeat, gender Male, age 6-8 weeks
Conditions: in vivo, po, route oral GAVAGE, […]; for ABSOLUTE BASOPHIL / ABSOLUTE EOSINOPHIL / ABSOLUTE LYMPHOCYTE / ABSOLUTE MONOCYTE / ABSOLUTE SEGMENTED NEUTROPHIL / BASOPHIL / EOSINOPHIL / ERYTHROCYTE COUNT / HEMATOCRIT / HEMOGLOBIN / LEUKOCYTE COUNT / LYMPHOCYTE / MEAN CORPUSCULAR HEMOGLOBIN / MEAN CORPUSCULAR HEMOGLOBIN CONCENTRATION / MEAN CORPUSCULAR VOLUME / MONOCYTE / NEUTROPHIL / NUCLEATED RED BLOOD CELLS / PLATELET COUNT: tissue Blood; for ALANINE AMINOTRANSFERASE / ALBUMIN / ALKALINE PHOSPHATASE / ASPARTATE AMINOTRANSFERASE / BLOOD UREA NITROGEN / CARBON DIOXIDE / CHLORIDE / CHOLESTEROL / CREATINE PHOSPHOKINASE / CREATININE / GLUCOSE / LACTATE DEHYDROGENASE / LIPASE / PHOSPHORUS / POTASSIUM / SODIUM / TOTAL BILIRUBIN / TOTAL PROTEIN / URIC ACID: tissue Plasma
[1] = 0 mg/kg, 72 h, dose level Control, time 3 day
[2] = 0 mg/kg, 120 h, dose level Control, time 5 day
[3] = 4 mg/kg, 72 h, dose level Low, time 3 day

For `CSc1ccc2c(c1)N(CCC1CCCCN1C)c1ccccc1S2` (centres undefined) [THIORIDAZINE], the “ABSOLUTE BASOPHIL” value [1] was 0 CELLS/uL, the “ABSOLUTE EOSINOPHIL” value [1] was 179.67 CELLS/uL and the “ABSOLUTE LYMPHOCYTE” value [1] was 11440.17 CELLS/uL. For the same molecule, the “ABSOLUTE MONOCYTE” value [1] was 128.83 CELLS/uL, the “ABSOLUTE SEGMENTED NEUTROPHIL” value [1] was 1051.33 CELLS/uL and the BASOPHIL [1] was 0%. For the same molecule, the EOSINOPHIL [1] was 1.33%, the “ERYTHROCYTE COUNT” value [1] was 5.53 x10E6/uL and the HEMATOCRIT [1] was 34.75%. For the same molecule, the HEMOGLOBIN [1] was 12.88 G/DL, the “LEUKOCYTE COUNT” value [1] was 12.8 x10E3/uL and the LYMPHOCYTE [1] was 89.5%. The “MEAN CORPUSCULAR HEMOGLOBIN” value [1] was 23.38 pg, the “MEAN CORPUSCULAR HEMOGLOBIN CONCENTRATION” value [1] was 37.12 G/DL and the “MEAN CORPUSCULAR VOLUME” value [1] was 62.88 fL. For the same molecule, the MONOCYTE [1] was 1%, the NEUTROPHIL [1] was 8.17% and the “NUCLEATED RED BLOOD CELLS” value [1] was 0 /100WBC. For the same molecule, the “PLATELET COUNT” value [1] was 1292 x10E3/uL, the “ALANINE AMINOTRANSFERASE” value [1] was 58.67 u/L and the ALBUMIN [1] was 4.25 G/DL. The “ALKALINE PHOSPHATASE” value [1] was 437.83 u/L, the “ASPARTATE AMINOTRANSFERASE” value [1] was 85.17 u/L and the “BLOOD UREA NITROGEN” value [1] was 14.17 mg/dL. The “CARBON DIOXIDE” value [1] was 28.67 mmol/L, the CHLORIDE [1] was 102.17 MEQ/L and the CHOLESTEROL [1] was 68.5 mg/dL. For the same molecule, the “CREATINE PHOSPHOKINASE” value [1] was 271.83 u/L, the CREATININE [1] was 0.2 mg/dL and the GLUCOSE [1] was 156.67 mg/dL. For the same molecule, the “LACTATE DEHYDROGENASE” value [1] was 112.33 u/L, the LIPASE [1] was 9.33 u/L and the PHOSPHORUS [1] was 11.1 mg/dL. The POTASSIUM [1] was 6.46 MEQ/L, the SODIUM [1] was 144.37 MEQ/L and the “TOTAL BILIRUBIN” value [1] was 0.23 mg/dL. The “TOTAL PROTEIN” value [1] was 5.8 G/DL, the “URIC ACID” value [1] was 1.55 mg/dL and the “ABSOLUTE BASOPHIL” value [2] was 0 CELLS/uL. The “ABSOLUTE EOSINOPHIL” value [2] was 87 CELLS/uL, the “ABSOLUTE LYMPHOCYTE” value [2] was 14743.5 CELLS/uL and the “ABSOLUTE MONOCYTE” value [2] was 187 CELLS/uL. For the same molecule, the “ABSOLUTE SEGMENTED NEUTROPHIL” value [2] was 1499.17 CELLS/uL, the BASOPHIL [2] was 0% and the EOSINOPHIL [2] was 0.5%. For the same molecule, the “ERYTHROCYTE COUNT” value [2] was 5.84 x10E6/uL, the HEMATOCRIT [2] was 36.3% and the HEMOGLOBIN [2] was 13.55 G/DL. The “LEUKOCYTE COUNT” value [2] was 16.52 x10E3/uL, the LYMPHOCYTE [2] was 89.5% and the “MEAN CORPUSCULAR HEMOGLOBIN” value [2] was 23.25 pg. The “MEAN CORPUSCULAR HEMOGLOBIN CONCENTRATION” value [2] was 37.35 G/DL, the “MEAN CORPUSCULAR VOLUME” value [2] was 62.27 fL and the MONOCYTE [2] was 1.17%. For the same molecule, the NEUTROPHIL [2] was 8.83%, the “NUCLEATED RED BLOOD CELLS” value [2] was 0.17 /100WBC and the “PLATELET COUNT” value [2] was 1233.5 x10E3/uL. For the same molecule, the “ALANINE AMINOTRANSFERASE” value [2] was 62.5 u/L, the ALBUMIN [2] was 4.17 G/DL and the “ALKALINE PHOSPHATASE” value [2] was 464.33 u/L. For the same molecule, the “ASPARTATE AMINOTRANSFERASE” value [2] was 99.67 u/L, the “BLOOD UREA NITROGEN” value [2] was 14.33 mg/dL and the “CARBON DIOXIDE” value [2] was 26 mmol/L. For the same molecule, the CHLORIDE [2] was 102.33 MEQ/L, the CHOLESTEROL [2] was 60.67 mg/dL and the “CREATINE PHOSPHOKINASE” value [2] was 402.5 u/L. For the same molecule, the CREATININE [2] was 0.22 mg/dL, the GLUCOSE [2] was 173.5 mg/dL and the “LACTATE DEHYDROGENASE” value [2] was 518.17 u/L. The LIPASE [2] was 10.83 u/L, the PHOSPHORUS [2] was 11.4 mg/dL and the POTASSIUM [2] was 6.13 MEQ/L. The SODIUM [2] was 142.63 MEQ/L, the “TOTAL BILIRUBIN” value [2] was 0.17 mg/dL and the “TOTAL PROTEIN” value [2] was 6.1 G/DL. The “URIC ACID” value [2] was 1.97 mg/dL, the “ABSOLUTE BASOPHIL” value [3] was 0 CELLS/uL and the “ABSOLUTE EOSINOPHIL” value [3] was 0 CELLS/uL. The “ABSOLUTE LYMPHOCYTE” value [3] was 12903.67 CELLS/uL, the “ABSOLUTE MONOCYTE” value [3] was 46 CELLS/uL and the “ABSOLUTE SEGMENTED NEUTROPHIL” value [3] was 817 CELLS/uL. For the same molecule, the BASOPHIL [3] was 0%, the EOSINOPHIL [3] was 0% and the “ERYTHROCYTE COUNT” value [3] was 5.52 x10E6/uL. For the same molecule, the HEMATOCRIT [3] was 35.4%, the HEMOGLOBIN [3] was 13.13 G/DL and the “LEUKOCYTE COUNT” value [3] was 13.77 x10E3/uL. The LYMPHOCYTE [3] was 93.67%, the “MEAN CORPUSCULAR HEMOGLOBIN” value [3] was 23.8 pg and the “MEAN CORPUSCULAR HEMOGLOBIN CONCENTRATION” value [3] was 37.1 G/DL. The “MEAN CORPUSCULAR VOLUME” value [3] was 64.17 fL, the MONOCYTE [3] was 0.33% and the NEUTROPHIL [3] was 6%. The “NUCLEATED RED BLOOD CELLS” value [3] was 0 /100WBC, the “PLATELET COUNT” value [3] was 1132.33 x10E3/uL and the “ALANINE AMINOTRANSFERASE” value [3] was 50 u/L. For the same molecule, the ALBUMIN [3] was 4.1 G/DL, the “ALKALINE PHOSPHATASE” value [3] was 495.33 u/L and the “ASPARTATE AMINOTRANSFERASE” value [3] was 79.67 u/L. The “BLOOD UREA NITROGEN” value [3] was 12 mg/dL, the “CARBON DIOXIDE” value [3] was 28.67 mmol/L and the CHLORIDE [3] was 101.67 MEQ/L. The CHOLESTEROL [3] was 70.67 mg/dL, the “CREATINE PHOSPHOKINASE” value [3] was 382.67 u/L and the CREATININE [3] was 0.17 mg/dL. The GLUCOSE [3] was 176.33 mg/dL, the “LACTATE DEHYDROGENASE” value [3] was 65.33 u/L and the LIPASE [3] was 9.67 u/L. For the same molecule, the PHOSPHORUS [3] was 11.5 mg/dL, the POTASSIUM [3] was 6.31 MEQ/L and the SODIUM [3] was 142.93 MEQ/L. The “TOTAL BILIRUBIN” value [3] was 0.2 mg/dL, the “TOTAL PROTEIN” value [3] was 5.57 G/DL and the “URIC ACID” value [3] was 1.93 mg/dL.
